# Read-outs that look alike come from different tables or passages of the source.
# Test system: HSP47
# Conditions: for HSP47 gene expression knockdown compared to control formulation without fusogenic compound: HEDC and S104 liposomes, all concentrations of siRNA; for % of Expression at Dose (nM) 18 nM: siRNA 18 nM; for % of Expression at Dose (nM) 75 nM: siRNA 75 nM; for % of Expression at Dose (nM) 300 nM: siRNA 300 nM
# Procedure: The in vitro activity for gene expression knockdown using an siRNA was measured using rat stellate cells in DMEM medium according to the following protocol: One day before the transfection, plate the cells in a 96-well plate at 3×10^3 cells per well for Stellate cells with 100 μl of medium containing 10% FBS and culture in a 37° C. incubator containing a humidified atmosphere of 5% CO2 in air. Before transfection, change medium to 90 μl of medium without antibiotics. Prepare the appropriate dilutions of the solution collected from the tubing in PBS buffer so that the addition of 10 μl into each well is sufficient to reach the desired concentration. 48 hours after transfection, wash the cells once with ice-cold PBS. Lyse the cells with 50 μl of Cell-to-Ct Lysis Buffer for 5-30 minutes at ambient temperature. Add 5 μl of Stop Solution and incubate for 2 minutes at ambient temperature. Measure mRNA level by qPCR with TAQMAN immediately. Alternatively, the samples can be frozen at −80° C. and assayed at later times. For qRT-PCR assay: Thaw all reagents on ice. Mix the pooled reagents in 0.2 ml PCR tubes. Dispense the set-up mixture into 384 well plate, 10 μl/well×3. Seal the plate with film, spin down mixture into the bottom of wells. Perform qRT-PCR assay.
# In this example, an HSP47 siRNA was used to knockdown HSP47 gene. For TaqMan gene expression assays, HSP47 gene specific TaqMan probe was used.
SMILES,"activity for gene expression knockdown in stellate cells compared to control formulation (FIG. 24, Table 6 formulation HEDC:S104:DOPE:CH:DMPE-PEG with 2% (of total lipids) fusogenic compound)","HSP47 gene expression knockdown compared to control formulation without fusogenic compound (FIG. 46, fusogenic compound 2% of the total lipids)","HSP47 gene expression knockdown compared to control formulation without fusogenic compound (FIG. 46, fusogenic compound 10% of the total lipids)","HSP47 gene expression knockdown compared to control formulation without fusogenic compound (FIG. 47, fusogenic compound 2% of the total lipids)","% of Expression at Dose (nM) 18 nM (Table 3, rat stellate cells)","% of Expression at Dose (nM) 50 nM (Table 3, siRNA 50 nM, rat stellate cells, 48 hours after transfection)","% of Expression at Dose (nM) 75 nM (Table 3, rat stellate cells)","% of Expression at Dose (nM) 200 nM (Table 3, siRNA 200 nM, rat stellate cells, 48 hours after transfection)","% of Expression at Dose (nM) 300 nM (Table 3, rat stellate cells)"
CCCCC/C=C\C/C=C\CCCCCCCC(=O)OCCN(CCOC(=O)CCCCCCC/C=C\C/C=C\CCCCC)C(=O)CCC(=O)NCCCC[C@H](NC(=O)CCC(=O)N(CCOC(=O)CCCCCCC/C=C\C/C=C\CCCCC)CCOC(=O)CCCCCCC/C=C\C/C=C\CCCCC)C(=O)NCCCOCCOCCOCCCNC(=O)CCOCCOCCOCCOCCOCCC(=O)NCCCOCCOCCOCCCNC(=O)[C@H](CCCCNC(=O)CCC(=O)N(CCOC(=O)CCCCCCC/C=C\C/C=C\CCCCC)CCOC(=O)CCCCCCC/C=C\C/C=C\CCCCC)NC(=O)CCC(=O)N(CCOC(=O)CCCCCCC/C=C\C/C=C\CCCCC)CCOC(=O)CCCCCCC/C=C\C/C=C\CCCCC [Compound R4],surprisingly increased,greatly and surprisingly increased,greatly and surprisingly increased,greatly and surprisingly increased,16%,44%,10%,15%,6%
CCCCCCCCCCCCCCCC(=O)OCCN(CCOC(=O)CCCCCCCCCCCCCCC)C(=O)CCCC(=O)NCCCC[C@H](NC(=O)CCCC(=O)N(CCOC(=O)CCCCCCCCCCCCCCC)CCOC(=O)CCCCCCCCCCCCCCC)C(=O)NCCCOCCOCCOCCCNC(=O)CCOCCOCCOCCOCCOCCC(=O)NCCCOCCOCCOCCCNC(=O)[C@H](CCCCNC(=O)CCCC(=O)N(CCOC(=O)CCCCCCCCCCCCCCC)CCOC(=O)CCCCCCCCCCCCCCC)NC(=O)CCCC(=O)N(CCOC(=O)CCCCCCCCCCCCCCC)CCOC(=O)CCCCCCCCCCCCCCC [Compound S6],,,,,97%,,80%,,33%
CCCCCCCC/C=C\CCCCCCCC(=O)OCCN(CCOC(=O)CCCCCCC/C=C\CCCCCCCC)C(=O)CCC(=O)NCCCC[C@H](NC(=O)CCC(=O)N(CCOC(=O)CCCCCCC/C=C\CCCCCCCC)CCOC(=O)CCCCCCC/C=C\CCCCCCCC)C(=O)NCCCOCCOCCOCCOCCOCCCNC(=O)[C@H](CCCCNC(=O)CCC(=O)N(CCOC(=O)CCCCCCC/C=C\CCCCCCCC)CCOC(=O)CCCCCCC/C=C\CCCCCCCC)NC(=O)CCC(=O)N(CCOC(=O)CCCCCCC/C=C\CCCCCCCC)CCOC(=O)CCCCCCC/C=C\CCCCCCCC [Compound S7],,,,,57%,,48%,,27%
CCCCCCCC/C=C\CCCCCCCC(=O)OCCN(CCOC(=O)CCCCCCC/C=C\CCCCCCCC)C(=O)CCC(=O)NCCCC[C@H](NC(=O)CCC(=O)N(CCOC(=O)CCCCCCC/C=C\CCCCCCCC)CCOC(=O)CCCCCCC/C=C\CCCCCCCC)C(=O)NCCCOCCOCCOCCCNC(=O)CCOCCOCCOCCOCCOCCC(=O)NCCCOCCOCCOCCCNC(=O)[C@H](CCCCNC(=O)CCC(=O)N(CCOC(=O)CCCCCCC/C=C\CCCCCCCC)CCOC(=O)CCCCCCC/C=C\CCCCCCCC)NC(=O)CCC(=O)N(CCOC(=O)CCCCCCC/C=C\CCCCCCCC)CCOC(=O)CCCCCCC/C=C\CCCCCCCC [Compound S8],,,,,74%,,64%,,42%
CCCCCCCCCCCCCC(=O)OCCN(CCOC(=O)CCCCCCCCCCCCC)C(=O)CCC(=O)NCCCC[C@H](NC(=O)CCC(=O)N(CCOC(=O)CCCCCCCCCCCCC)CCOC(=O)CCCCCCCCCCCCC)C(=O)NCCCOCCOCCOCCCNC(=O)CCOCCOCCOCCOCCOCCC(=O)NCCCOCCOCCOCCCNC(=O)[C@H](CCCCNC(=O)CCC(=O)N(CCOC(=O)CCCCCCCCCCCCC)CCOC(=O)CCCCCCCCCCCCC)NC(=O)CCC(=O)N(CCOC(=O)CCCCCCCCCCCCC)CCOC(=O)CCCCCCCCCCCCC [Compound T1],,,,,76%,,68%,,44%

# From patent publication US11413243B2, “Fusogenic compounds for delivery of biologically active molecules” (Nitto Denko Corporation, priority 2017, dated 2022)
